Tested on: DYT1 knockin (Tor1a^delGAG/+) murine embryonic fibroblasts (MEFs)
Assay: Untargeted LC/MS/MS proteomics of EVs from DYT1 MEFs exposed 24 hours to drug, compared with untreated DYT1 (Het) MEFs
Format: cell-based, mouse
Protocol: Methods for isolation and purification of exosomes and extracellular vesicles (EV) were extensively reviewed. Experiments were performed to arrive at a robust and reproducible protocol. The protocol used herein is that set forth in Théry et al, 2006, which is incorporated by reference for it teaching of this protocol. This protocol involves depleting serum-derived EVs from cell culture media by overnight ultracentrifugation and exchanging media for 1% FBS EV-depleted media. Media is then collected from cells following a 24-hour conditioning period and EVs are isolated by 18-hour ultracentrifugation at 100,000 g (FIG. 1A).
EVs were isolated from media of cultured murine embryonic fibroblasts (MEFs) prepared in-house according to protocols described by Xu 2005 from DYT1 knockin mice (Tor1a^delGAG/+) (Goodchild R E, et al. (2005) Neuron. 48:923-932) and littermate wild-type (WT) controls. The cultured MEFs from the DYT1 mice were exposed for 24 hours to Ritonavir (RTV) while the MEFs from WT mice were exposed to vehicle, ISRIB, or Salubrinal (SAL). The EVs isolated from these WT cells and DYT1 were characterized by untargeted proteomics and RNA-seq to identify differentially expressed proteins and RNAs as candidate biomarkers. Experimenter and Proteomics core staff were blinded to genotype of cell cultures throughout preparation and analysis phases.
Samples were first normalized to 20 μg and spiked with undigested casein at a total of 40 fmol/μg, 80 fmol/μg, or 160 fmol/μg, then reduced with 10 mM dithiolthreitol for 30 minute at 80° C. and alkylated with 20 mM iodoacetamide for 30 minutes at room temperature. Next, the samples were supplemented with a final concentration of 1.2% phosphoric acid and 741 μL of S-Trap (Protifi) binding buffer (90% MeOH/100 mM […]). Proteins were trapped on the S-Trap, digested using 20 ng/μL sequencing grade trypsin (Promega) for 1 hour at 47° C., and eluted using 50 mM TEAB, followed by 0.2% FA, and lastly using 50% CAN/0.2% FA. All samples were then lyophilized to dryness and resuspended in 40 μL 1% TFA/2% acetonitrile containing 12.5 fmol/μL yeast alcohol dehydrogenase (ADH_YEAST). A QC Pool was created from 3 uL of each sample. All QC Pools were run periodically throughout the acquisition period.
Quantitative LC/MS/MS was performed on 2 μL of each sample, using a nanoAcquity UPLC system (Waters Corp) coupled to a Thermo Orbitrap Fusion Lumos high resolution accurate mass tandem mass spectrometer (Thermo) via a nanoelectrospray ionization source. Briefly, the sample was first trapped on a Symmetry C18 20 mm×180 μm trapping column (5 μL/min at 99.9/0.1 v/v water/acetonitrile), after which the analytical separation was performed using a 1.8 μm Acquity HSS T3 C18 75 μm×250 mm column (Waters Corp.) with a 90 minute linear gradient of 5% to 30% acetonitrile with 0.1% formic acid at a flow rate of 400 nanoliters/minute (nL/min) with a column temperature of 55° C. Data collection on the Fusion Lumos mass spectrometer was performed in a data-dependent acquisition (DDA) mode of acquisition with a r=120,000 (@ m/z 200) full MS scan from m/z 375-1500 with a target AGC value of 2e5 ions. MS/MS scans were acquired at Rapid scan rate (Ion Trap) with an AGC target of 5e3 ions and a max injection time of 100 ms. The total cycle time for MS and MS/MS scans was 2 seconds. A 20 second dynamic exclusion was employed to increase depth of coverage. The total analysis cycle time for each sample injection was approximately 2 hours.

CC(C)c1nc(CN(C)C(=O)N[C@H](C(=O)N[C@@H](Cc2ccccc2)C[C@H](O)[C@H](Cc2ccccc2)NC(=O)OCc2cncs2)C(C)C)cs1 [RTV, Ritonavir]
direction of modulated EV protein expression (DYT1 cells, 363 proteins of the DYT1 Genotype Dependent Differences subset): modulated expression in a therapeutic direction
Abs Z Score Sum (Geno + RTV) (EV protein A2AVA0 Sushi, von Willebrand factor type A, EGF and pentraxin domain-containing protein 1): 2.64
Abs Z Score Sum (Geno + RTV) (EV protein Akr1b1 (P45376)): 8.44
Abs Z Score Sum (Geno + RTV) (EV protein Aldh2 (P47738)): 25.29
RTV Direction Opposite dE? (EV protein Aldh2 (P47738)): yes
Abs Z Score Sum (Geno + RTV) (EV protein C1qtnf3 (Q9..)): 6.95
Abs Z Score Sum (Geno + RTV) (EV protein Cnn3 (Q9DAW9)): 13.28
RTV Direction Opposite dE? (EV protein Cnn3 (Q9DAW9)): yes
Abs Z Score Sum (Geno + RTV) (EV protein Cnot1 (Q6ZQ08)): 12.30
RTV Direction Opposite dE? (EV protein Cnot1 (Q6ZQ08)): yes
Abs Z Score Sum (Geno + RTV) (EV protein Col5A1 Q88207): 5.55
Abs Z Score Sum (Geno + RTV) (EV protein Coph2 Q55029): 9.40
Abs Z Score Sum (Geno + RTV) (EV protein Cryab (P23927)): 5.18
RTV Direction Opposite dE? (EV protein Cryab (P23927)): yes
Abs Z Score Sum (Geno + RTV) (EV protein Cxadr (P97792)): 16.73
RTV Direction Opposite dE? (EV protein Cxadr (P97792)): yes
RTV Direction Opposite dE? (EV protein D3YXG0): yes
RTV Direction Opposite dE? (EV protein Dars (Q922B2)): yes
RTV Direction Opposite dE? (EV protein Dctn2 (Q99KJ8)): yes
Abs Z Score Sum (Geno + RTV) (EV protein Ddx3x (Q62167)): 5.09
Abs Z Score Sum (Geno + RTV) (EV protein Ddx5 (Q61656)): 8.05
Abs Z Score Sum (Geno + RTV) (EV protein Ddx39b (Q9Z1N5)): 16.28
RTV Direction Opposite dE? (EV protein Ddx39b (Q9Z1N5)): yes
Abs Z Score Sum (Geno + RTV) (EV protein Dhx9 (Q70133)): 9.00
Abs Z Score Sum (Geno + RTV) (EV protein Dhx15 (Q35286)): 7.27
Abs Z Score Sum (Geno + RTV) (EV protein Efemp1 Q8BPB5): 8.34
RTV Direction Opposite dE? (EV protein Esyt1 (Q3U7R1)): yes
Abs Z Score Sum (Geno + RTV) (EV protein Exoc4 (Q35382)): 14.59
RTV Direction Opposite dE? (EV protein Exoc4 (Q35382)): yes
Abs Z Score Sum (Geno + RTV) (EV protein Extended synaptotagmin-1 (Q3..)): 4.61
Abs Z Score Sum (Geno + RTV) (EV protein Fth1 P09528): 12.58
Abs Z Score Sum (Geno + RTV) (EV protein Fus (P56959)): 14.88
RTV Direction Opposite dE? (EV protein Fus (P56959)): yes
Abs Z Score Sum (Geno + RTV) (EV protein Gsto1 (Q09131)): 8.09
RTV Direction Opposite dE? (EV protein Gsto1 (Q09131)): yes
Abs Z Score Sum (Geno + RTV) (EV protein Hmen1 D3YXG0): 11.51
RTV Direction Opposite dE? (EV protein Hnrnpf (Q9Z2X1)): yes
RTV Direction Opposite dE? (EV protein Hnrnph1 (Q35737)): yes
Abs Z Score Sum (Geno + RTV) (EV protein Hnrnpl Q8R081): 9.12
Abs Z Score Sum (Geno + RTV) (EV protein Idh2 (P54071)): 26.73
Abs Z Score Sum (Geno + RTV) (EV protein Igf1r Q60751): 4.86
RTV Direction Opposite dE? (EV protein Impa1 (Q55023)): yes
Abs Z Score Sum (Geno + RTV) (EV protein Ipo7 (Q9EPL8)): 5.25
RTV Direction Opposite dE? (EV protein Ipo7 (Q9EPL8)): yes
Abs Z Score Sum (Geno + RTV) (EV protein Ipo11 (Q8K2V6)): 13.53
RTV Direction Opposite dE? (EV protein Ipo11 (Q8K2V6)): yes
Abs Z Score Sum (Geno + RTV) (EV protein Itgb3 (Q54890)): 4.87
RTV Direction Opposite dE? (EV protein Itgb3 (Q54890)): yes
Abs Z Score Sum (Geno + RTV) (EV protein Itm2b Q89051): 17.16
Abs Z Score Sum (Geno + RTV) (EV protein Itpa (Q9D892)): 23.68
RTV Direction Opposite dE? (EV protein Itpa (Q9D892)): yes
Abs Z Score Sum (Geno + RTV) (EV protein Kpna4 (Q35343)): 14.28
RTV Direction Opposite dE? (EV protein Kpna4 (Q35343)): yes
Abs Z Score Sum (Geno + RTV) (EV protein Lipg (Q9WVG5)): 11.27
Abs Z Score Sum (Geno + RTV) (EV protein Mdk (P12025)): 7.88
RTV Direction Opposite dE? (EV protein Mdk (P12025)): yes
Abs Z Score Sum (Geno + RTV) (EV protein Mem2 P97310): 7.66
Abs Z Score Sum (Geno + RTV) (EV protein Mtap (Q9CQ65)): 8.12
RTV Direction Opposite dE? (EV protein Myo18a): yes
Abs Z Score Sum (Geno + RTV) (EV protein Myo18a (Q9JM..)): 7.78
Abs Z Score Sum (Geno + RTV) (EV protein Nap114 Q78ZA7): 50.77
Abs Z Score Sum (Geno + RTV) (EV protein Nrbp1 (Q99..)): 9.54
RTV Direction Opposite dE? (EV protein Nrbp1 (Q99J45)): yes
Abs Z Score Sum (Geno + RTV) (EV protein Otub1 (Q7TQ..)): 11.30
RTV Direction Opposite dE? (EV protein P09528, Ferritin heavy chain): yes
RTV Direction Opposite dE? (EV protein P27612, Phospholipase A-2-activating protein): yes
Abs Z Score Sum (Geno + RTV) (EV protein P48678 Prelamin-A C): 7.44
RTV Direction Opposite dE? (EV protein P61089, Ubiquitin-conjugating enzyme): yes
Abs Z Score Sum (Geno + RTV) (EV protein Pdia4 (P08003)): 5.92
RTV Direction Opposite dE? (EV protein Pdia4 (P08003)): yes
Abs Z Score Sum (Geno + RTV) (EV protein Penk (P22005)): 4.31
RTV Direction Opposite dE? (EV protein Penk (P22005)): yes
Abs Z Score Sum (Geno + RTV) (EV protein Plaa P27612): 12.45
Abs Z Score Sum (Geno + RTV) (EV protein Pld3 (Q35405)): 7.47
RTV Direction Opposite dE? (EV protein Pld3 (Q35405)): yes
Abs Z Score Sum (Geno + RTV) (EV protein Prep Q9QUR6): 8.56
Abs Z Score Sum (Geno + RTV) (EV protein Prpf8 (Q99PV0)): 11.34
Abs Z Score Sum (Geno + RTV) (EV protein Psmd1 (Q3TXS7)): 7.84
Abs Z Score Sum (Geno + RTV) (EV protein Pura (P42669)): 6.04
RTV Direction Opposite dE? (EV protein Pura (P42669)): yes
RTV Direction Opposite dE? (EV protein Q6X893, Choline transporter-like protein 1): yes
RTV Direction Opposite dE? (EV protein Q8BL97, Serine arginine-rich splicing factor 7): yes
RTV Direction Opposite dE? (EV protein Q8C878, NEDD8-activating enzyme E1 catalytic subunit): yes
Abs Z Score Sum (Geno + RTV) (EV protein Q8C878 NEDD8-activating enzyme .. subunit): 14.97
Abs Z Score Sum (Geno + RTV) (EV protein Q8CG19 Latent-transforming GF β-binding protein 1): 6.03
Abs Z Score Sum (Geno + RTV) (EV protein Q9D1M4 (Eukaryotic translation .. epsilon-1)): 20.67
RTV Direction Opposite dE? (EV protein Q9D1M4, Eukaryotic translation EF1 epsilon-1): yes
RTV Direction Opposite dE? (EV protein Q9FS30, Complement C1q tumor necrosis factor-related protein 3): yes
RTV Direction Opposite dE? (EV protein Q9Z1Z0, General vesicular transport factor p115): yes
Abs Z Score Sum (Geno + RTV) (EV protein Q9Z2X1 Heterogeneous nuclear ribonucleoprotein E): 12.02
RTV Direction Opposite dE? (EV protein Q78ZA7, Nucelosome assembly protein 1-like 4): yes
Abs Z Score Sum (Geno + RTV) (EV protein Q99KJ8 Dynactin subunit 2): 13.94
Abs Z Score Sum (Geno + RTV) (EV protein Q922B2 Aspartate--tRNA ligase): 12.17
Abs Z Score Sum (Geno + RTV) (EV protein Q01405 Protein transport protein .. 23A): 13.20
Abs Z Score Sum (Geno + RTV) (EV protein Q35737 Heterogeneous nuclear ribonucleoprotein H): 8.31
Abs Z Score Sum (Geno + RTV) (EV protein Q55023 Inositol monophosphatase 1): 14.51
RTV Direction Opposite dE? (EV protein Q60751, Insulin-like growth factor 1 receptor): yes
Abs Z Score Sum (Geno + RTV) (EV protein Q60972 Histone-binding protein RBBP4): 18.10
RTV Direction Opposite dE? (EV protein Q89051, Integral membrane protein 2B): yes
Abs Z Score Sum (Geno + RTV) (EV protein Qars (Q8BML9)): 13.17
RTV Direction Opposite dE? (EV protein Qars (Q8BML9)): yes
Abs Z Score Sum (Geno + RTV) (EV protein Rab6a (P35279)): 6.80
RTV Direction Opposite dE? (EV protein Rab6a (P35279)): yes
RTV Direction Opposite dE? (EV protein Rbbp4 (Q60972)): yes
Abs Z Score Sum (Geno + RTV) (EV protein Rpl22 (P67984)): 7.66
RTV Direction Opposite dE? (EV protein Rpl22 (P67984)): yes
Abs Z Score Sum (Geno + RTV) (EV protein S100a11 (P50543)): 8.18
RTV Direction Opposite dE? (EV protein S100a11 (P50543)): yes
Abs Z Score Sum (Geno + RTV) (EV protein Scarb2 (Q35114)): 3.91
RTV Direction Opposite dE? (EV protein Scarb2 (Q35114)): yes
RTV Direction Opposite dE? (EV protein Sec23a (Q01405)): yes
Abs Z Score Sum (Geno + RTV) (EV protein Sec31a (Q3..)): 8.41
Abs Z Score Sum (Geno + RTV) (EV protein Shrnt2 Q9CZN7): 11.93
Abs Z Score Sum (Geno + RTV) (EV protein Slc44a1 Q6X893): 3.67
Abs Z Score Sum (Geno + RTV) (EV protein Spp1 (P10923)): 11.35
